Patent US5446152A, “Heterocyclic compounds active in gastro-intestinal pathologies” (priority 1993, dated 1995)
Structures can show the parent of a compound that is named as a salt. Where two headings read alike, the source gives them in different places.

Columns and labels:
[1] = test system: intestinal transit; experiment: Intestinal transit of an opaque meal in the mouse (prokinetic action); format: in vivo, Swiss albino mice; settings: for % of intestine (from pylorus to anus) travelled by the opaque meal / change in vivo at 0.0098 mg/kg: 9.8 μg/Kg p.o.; for % of intestine (from pylorus to anus) travelled by the opaque meal / change in vivo at 0.0098 mg/kg / ED50: 15' before the opaque meal; for change in vivo at 0.0098 mg/kg: Mus musculus, read-out: variation in % with respect to the controls; for change in vivo at 0.0098 mg/kg / ED50: po; for change in vivo at 0.0098 mg/kg / Variation % with respect to the controls: * = p<0.05; for Variation % with respect to the controls / ED50: mouse; for Variation % with respect to the controls: dose five times greater than ED50; for ED50: read-out: DE50 (the source's name)
Method: (§1) In tables 5, 6, 7 and 8 the significance was determined by means of Student's test on absolute values with respect to the relative controls using 10 animals per group in tests 5, 6 and 7.
The prokinetic action was evaluated in vivo on Swiss albino mice determining the influence of the products on the intestinal transit of an opaque meal, according to the method described by Macht D. I. and Barba-Gose J. in J. Amer. Pharm. Ass. 20, 558, 1931 and later by Witkin L. B. et al. in J. Pharmacol. Exp. Ther. […]
The method involved the administration of an opaque meal to the mice after a 24 hour fast, through gastric probe, 15 minutes after the administration of the product.
After sacrificing the animals 20 minutes after the administration of the opaque meal, the percentage of the length of the intestine travelled by the opaque meal was calculated.

[2] = test system: serotonine on the fornix of the rat stomach; experiment: Influence on the serotonine activity on the fornix of the rat stomach; parameters: species or system Wistar rat
Method: (§2) In vitro tests were carried out to evaluate the effect of the compounds of formula I and some of their pharmacologically acceptable salts on physiological peristalsis, on the action of the histamine, serotonine and acetylcholine.
The effect on the serotonine was evaluated on the fornix of the stomach of a rat according to the method of Vane J. R. in Br. J. Pharmacol. Cheroother. 12, 344, 1957.
The action on the serotonine was evaluated on the fornix of the stomach of rat, also taken from Wistar rat sacrificed after 24 hours fasting, following the technique reported by Vane J. R. in Br. J. Pharmacol. Chemoter. 12, 344, 1957, as previously described.

[3] = test system: emesis induced with cisplatin; experiment: Test of vomit from cisplatin in the pigeon (antiemetic activity); format: in vivo; settings: one hour before cisplatin 7.5 mg/kg; for Acts of vomit (average/anim.) / Animals that vomit % / Latency of 1st act of vomit: * = p<0.05
Method: as §1
Finally the antiemetic activity was evaluated in the pigeon after induction of emesis with cisplatin, according to the method of Preziosi P. et al. in Eur. J. Pharmacol. 221, 343, 1992.

[4] = test system: acetylcholine on the rat ascending colon; experiment: Influence on the acetylcholine activity on the rat ascending colon; parameters: species or system Wistar rat; settings: isolated rat ascending colon
Method: as §2
Finally the effect on the acetylcholine was evaluated on the ascending colon of a rat, according to the method of Gaddum J. H. and Horton E. W. reported in Br. J. Pharmacol. Chemother. 14, 117, 1959.
The effect of the products on the contracturing action of the acetylcholine was studied on the isolated ascending colon of rat, taken from Wistar rat sacrificed after 24 hours fasting, washed with De Jalon fluid at 27° C. and perfused with the same oxygenated fluid (95% oxygen and 5% carbon dioxide) at the temperature of 27° C. In this case too the cumulative dose-response curves were recorded in the presence of increasing concentrations of the products being studied.

[5] = test system: rabbit jejunum; experiment: Spontaneous peristaltic activity on rabbit jejunum; settings: for Emax / EC50 / EC (maximum effect): Oryctolagus cuniculus; for Emax: read-out: maximum effect % (max. increase of extent of the contractions); for EC50: read-out: CE50 (concentration able to produce 50% of the maximum effect); for EC (maximum effect): read-out: concentration required to obtain the maximum effect
Method: as §2
The action on physiological peristalsis was evaluated on an isolated rabbit jejunum preparation, according to the method reported by Magnus J. in Pfluegers Arch. Gen. Physiol.
The rabbit jejunum was used to evaluate the extent of the spontaneous peristaltic contractions in the presence and in the absence of the derivatives being studied.

[6] = test system: histamine on guinea-pig ileum; experiment: Influence on the activity of histamine on guinea-pig ileum; settings: isolated guinea-pig ileum
Method: In vitro tests were carried out to evaluate the effect of the compounds of formula I and some of their pharmacologically acceptable salts on physiological peristalsis, on the action of the histamine, serotonine and acetylcholine. The effect on the histamine was evaluated on a preparation of guinea-pig ileum according to the method described by the above-mentioned authors. […] The rabbit jejunum was used to evaluate the extent of the spontaneous peristaltic contractions in the presence and in the absence of the derivatives being studied. On the guinea-pig ileum the cumulative dose-response curve to histamine were recorded in the presence of increasing concentrations of the products being examined.

[7] = test system: gastric dumping; experiment: Test of gastric dumping in the rat; format: in vivo; settings: for Increase % of the gastric dumping with respect to the controls: 30' before, measured 20' after the coloured meal, * = p<0.05
Method: as §1
Within the gastro-duodenal tract, the prokinetic activity was evaluated by means of the test of gastric dumping in the rat, according to the method reported by Scarpignato C. in J. Pharmacol. 14, 261, 1983.

[8] = Study of acute toxicity (LD50); format: in vivo; settings: rat, in vivo, iv; Sprague-Dawley rats of both sexes, observation period of 14 days
Method: (§3) The acute toxicity (LD50)of the derivatives described in this invention was evaluated according to the method reported by Lietchfield J. T. and Wilcoxon F. in J. Pharmacol. Exp. Ther. 96, 99, 1949, on Sprague-Dawley rats of both sexes, over an observation period of 14 days from the day of treatment.

[9] = test system: behaviour; experiment: Irwin's test (effects as regards behaviour); format: in vivo; settings: rats, 20 mg/Kg i.p.
Description: Finally, preliminary studies on the effects as regards behaviour have been performed by means of Irwin's test, according to the method reported by Irwin S. in Gordon Res. Conf. on Medicinal Chem. 1959, 133, 1959, modified in that rats were used instead of mice.

[10] = test system: Sprague-Dawley rats; experiment: Study of acute toxicity (LD50); format: in vivo; settings: Sprague-Dawley rats of both sexes, i.v., observation period of 14 days; 20160 min
Method: as §3

[11] = test system: cholinesterase; settings: cited from earlier work
[12] = test system: dopaminergic receptors D2; settings: cited from earlier work
[13] = test system: gastro-intestinal motility; settings: cited from earlier work
[14] = isolated rabbit jejunum, spontaneous peristaltic contractions

CCN(CC)CCN1CNc2ccc(Cl)cc2C1=O.O=C(O)C(=O)O [Example 1, 6-Chloro-3-[2-(diethylamino)ethyl]-2,3-dihydro-4(1H)-quinazolinone oxalate]
% of intestine (from pylorus to anus) travelled by the opaque meal [1]: 52.0% | change in vivo at 0.0098 mg/kg [1]: 34.4% | Variation % with respect to the controls [1]: 33.7% | ED50 [1]: 0.0098 mg/kg | active concentration (serotonine) [2]: 10 µM | effect on the serotonine activity ([2]; oxalate): increase the effect of the serotonine | Variation % of the time of latency with respect to the controls ([3]; 50.0 μg/kg i.m.): -8.3% | Acts of vomit (average/anim.) ([3]; 50.0 μg/kg i.m.): 5.0 average/anim. | Animals that vomit % ([3]; 50.0 μg/kg i.m.): 100.0% | Latency of 1st act of vomit ([3]; 50.0 μg/kg i.m.): 77.5 min | Variation % of the time of latency with respect to the controls ([3]; 100.0 μg/kg i.m.): +14.7% | Acts of vomit (average/anim.) ([3]; 100.0 μg/kg i.m.): 4.0 average/anim. | Animals that vomit % ([3]; 100.0 μg/kg i.m.): 100.0% | Latency of 1st act of vomit ([3]; 100.0 μg/kg i.m.): 97.0 min | active concentration (acetylcholine) [4]: 100 µM | Emax [5, 14]: 75% | EC50 ([5]; isolated rabbit jejunum): 3000 nM | EC (maximum effect) ([5]; isolated rabbit jejunum): 10 µM | effect on the spontaneous peristalsis in comparison with cisapride ([5]; rabbit jejunum, examples 1 and 2 at greater concentrations than the reference, example 6 at identical concentrations): greater than that of cisapride | active concentration (histamine) [6]: 100 µM | Increase % of the gastric dumping with respect to the controls ([7]; 12.5 μg/kg): 27.6% | Increase % of the gastric dumping with respect to the controls ([7]; 50.0 μg/kg): 81.0% | Increase % of the gastric dumping with respect to the controls ([7]; 100.0 μg/kg): 40.0% | Increase % of the gastric dumping with respect to the controls ([7]; 200.0 μg/kg): 45.7% | Increase % of the gastric dumping with respect to the controls ([7]; 400.0 μg/kg): 34.0% | level of activity on the gastric dumping ([7]; rat, text statement on table 7): high level of activity on the gastric dumping | LD50 at 336 h [8]: 100 mg/kg

CCN(CC)CCCN1CNc2ccc(Cl)cc2C1=O [Example 3, 6-Chloro-3-3-(diethylamino)propyl-2,3-dihydro-4(1H)-quinazolinone oxalate]
% of intestine (from pylorus to anus) travelled by the opaque meal [1]: 45.0% | change in vivo at 0.0098 mg/kg [1]: 11.1% | Variation % with respect to the controls [1]: 6.4% | effect on the serotonine activity [2]: act as competitive antagonists | Emax [5, 14]: 25% | EC50 ([5]; isolated rabbit jejunum): 10 nM | EC (maximum effect) ([5]; isolated rabbit jejunum): 1 µM | variations with respect to the controls in behavioural parameters (Irwin's test) [9]: no significant variations with respect to the controls

CCN(CC)CCN1CN(C)c2ccc(Cl)cc2C1=O [Example 11, 6-Chloro-3-[2-(diethylamino)ethyl]-2,3-dihydro-1-methyl-4(1H)-quinazolinonecitrate]
LD50 [10]: 80 mg/Kg/i.v.

COc1cc(N)c(Cl)cc1C(=O)NC1CCN(CCCOc2ccc(F)cc2)CC1OC (centres unmarked) [cisapride, reference compound]
ED50 [1]: 0.019 mg/kg | cholinesterase inhibition [11]: practically no | Emax [5]: 40% | EC50 ([5]; isolated rabbit jejunum): 20 nM | LD50 at 336 h [8]: 35 mg/kg

COc1cc(N)c(Cl)cc1C(=O)NC1CCN(Cc2ccccc2)CC1 [clebopride]
activity on the dopaminergic receptors D2 [12]: a fair amount of activity on the dopaminergic receptors D2 | gastro-intestinal motility / prokinetic activity [13]: having prokinetic activity

CCN1CC(NC(=O)c2cc(Cl)c(N)cc2OC)CN1CC [dazopride]
activity on the dopaminergic receptors D2 [12]: a fair amount of activity on the dopaminergic receptors D2 | gastro-intestinal motility / prokinetic activity [13]: having prokinetic activity

CCN(CC)CCNC(=O)c1cc(Cl)c(N)cc1OC [metoclopramide]
activity on the dopaminergic receptors D2 [12]: both central and peripheral antagonistic activity on the dopaminergic receptors D2 | gastro-intestinal motility / prokinetic activity [13]: stimulates the motility of the upper gastro-intestinal tract
